# Data from publication PMC10787790, “Isatin-tethered halogen-containing acylhydrazone derivatives as monoamine oxidase inhibitor with neuroprotective effect” (Scientific Reports, 2024).
# What was measured:
# [1] = molecular target: T1, MAO-B (Homo sapiens, UniProt P27338); experiment: MAO-B inhibition assay (continuous, benzylamine); settings: for SI (selectivity index): (IC50 of MAO-A)/(IC50 of MAO-B), MAO-B compared to MAO-A; for remaining activity at 10 µM: read-out: Residual activity at 10 µM (%) MAO-B
# T1 sequence (P27338 1-520): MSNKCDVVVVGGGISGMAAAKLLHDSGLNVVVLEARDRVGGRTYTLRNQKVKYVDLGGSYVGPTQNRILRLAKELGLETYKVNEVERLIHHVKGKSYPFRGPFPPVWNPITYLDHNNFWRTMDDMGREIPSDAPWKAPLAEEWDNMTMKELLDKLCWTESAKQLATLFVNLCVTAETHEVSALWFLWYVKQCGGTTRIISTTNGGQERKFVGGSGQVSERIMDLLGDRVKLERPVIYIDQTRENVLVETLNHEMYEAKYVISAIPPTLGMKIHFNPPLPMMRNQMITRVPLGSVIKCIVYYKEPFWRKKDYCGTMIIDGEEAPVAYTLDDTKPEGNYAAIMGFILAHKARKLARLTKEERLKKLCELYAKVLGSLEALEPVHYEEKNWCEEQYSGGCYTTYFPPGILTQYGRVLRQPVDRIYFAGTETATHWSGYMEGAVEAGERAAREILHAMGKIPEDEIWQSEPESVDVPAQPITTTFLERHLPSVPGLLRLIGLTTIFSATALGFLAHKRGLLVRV
# [2] = molecular target: T2, MAO-A (Homo sapiens, UniProt P21397); experiment: MAO-A inhibition assay (continuous, kynuramine); settings: for remaining activity at 10 µM: read-out: Residual activity at 10 µM (%) MAO-A
# T2 sequence (P21397 1-527): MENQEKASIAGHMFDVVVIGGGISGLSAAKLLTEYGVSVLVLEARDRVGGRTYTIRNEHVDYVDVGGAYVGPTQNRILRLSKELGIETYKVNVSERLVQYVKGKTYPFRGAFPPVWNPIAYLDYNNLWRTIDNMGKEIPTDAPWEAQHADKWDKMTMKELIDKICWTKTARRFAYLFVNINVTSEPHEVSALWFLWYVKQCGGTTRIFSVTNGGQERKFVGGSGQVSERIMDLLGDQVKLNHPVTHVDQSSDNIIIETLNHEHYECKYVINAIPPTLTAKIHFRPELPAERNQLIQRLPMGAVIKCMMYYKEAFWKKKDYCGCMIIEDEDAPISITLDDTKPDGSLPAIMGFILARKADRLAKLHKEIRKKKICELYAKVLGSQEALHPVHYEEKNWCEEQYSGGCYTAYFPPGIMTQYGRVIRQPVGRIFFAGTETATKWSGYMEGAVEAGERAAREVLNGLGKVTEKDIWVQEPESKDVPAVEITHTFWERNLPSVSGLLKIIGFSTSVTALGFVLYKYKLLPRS
# [3] = Parallel artificial membrane permeability assay (PAMPA), BBB; assay type: in vitro ADME; settings: for Experimental Pe: pH 7.4; for Papp: pH 7.4, read-out: Experimental Pe
# Procedure: The blood–brain barrier (BBB) permeation abilities of the four lead molecules were analyzed using the PAMPA method[44],[45]. The detailed procedure is explained in the Supplementary Data.
# Using a microtiter plate with 96 wells and a Millipore filter plate with 96 wells (ipvh, 125 μm thick filter, 0.45 μm pore), which was then saturated with 0.1 mL of n-dodecane, a "sandwich" structure was created in PAMPA. Stock solutions of drug samples in DMSO were created at a 10 mM concentration. The stock solution was diluted in buffer at pH 7.4 before being added to a 96-well filter plate in order to achieve a final sample concentration (0.01, 0.1, and 1 mM) and keep the DMSO concentration at 1% (v/v). The final dilutions were divided into 270 μL for the donor wells and 200 μL of pH 7.4 buffer for the acceptor well. The donor plate was placed on the top of the acceptor filter plate to form a sandwich (comprising of a synthetic lipid membrane in the center, an aqueous receiver on […], and an aqueous donor carrying an analyte on the bottom.). The test substance diffuses from the donor well across the lipid membrane and into the acceptor well. The sandwich is said to have been intact when the penetration occurred. The drug concentration in the reference, donor, and receiver wells was measured using UV spectroscopy. The rate of penetration is calculated using the following expression.
# Log Pe = -ln [1-CA /Equilibrium]/A× (1/VD + 1/VA) × t
# [4] = system: SOD; experiment: Superoxide dismutase (SOD) activity in LPS-induced SH-SY5Y cells; assay type: cell-based, human; settings: 10 µM/mL
# [5] = molecular target: T1, MAO-B; experiment: Reversibility study by dialysis, MAO-B
# [6] = system: TNF-α; experiment: TNF-α expression in LPS-induced SH-SY5Y cells; assay type: cell-based, human
# [7] = system: GPx; experiment: Glutathione peroxidase (GPx) activity in LPS-induced SH-SY5Y cells; assay type: cell-based, human; settings: 10 µM/mL
# [8] = system: CAT; experiment: Catalase (CAT) activity in LPS-induced SH-SY5Y cells; assay type: cell-based, human; settings: 10 µM/mL
# [9] = system: NF-kB; experiment: NF-kB expression in LPS-induced SH-SY5Y cells; settings: LPS 1 µg/mL 2 h, compound 24 h, SH-SY5Y
# [10] = system: SH-SY5Y cells; experiment: MTT cytotoxicity assay; assay type: cell-based, human; settings: 24 h
# [11] = molecular target: T1, MAO-B; experiment: Enzyme kinetics, Lineweaver-Burk and secondary plots, MAO-B; assay type: biochemical; parameters: purchased Sigma-Aldrich
# [12] = system: ROS; experiment: ROS assay (DCF) in LPS-treated SH-SY5Y cells; assay type: cell-based, human
# [13] = system: IL-6; experiment: IL-6 expression in LPS-induced SH-SY5Y cells; assay type: cell-based, human
# [14] = LPS 1 µg/mL 2 h, compound 24 h, SH-SY5Y
structure (smiles),measurement,setting,value
O=C1Nc2ccc(Br)cc2/C1=N/NC(=O)c1ccccc1 [IS1],IC50,[1],0.42 ± 0.028 µM
same,SI (selectivity index),[1],> 95.24
same,remaining activity at 10 µM,[1],22 ± 2.75%
same,IC50,[2],> 40 µM
same,remaining activity at 10 µM,[2],83.1 ± 2.34%
O=C1Nc2ccc(Br)cc2/C1=N/NC(=O)c1ccc(Cl)cc1 [IS2],IC50,[1],0.269 ± 0.004 µM
same,SI (selectivity index),[1],34.03
same,remaining activity at 10 µM,[1],1.18 ± 2.04%
same,IC50,[2],9.16 ± 0.324 µM
same,remaining activity at 10 µM,[2],46.9 ± 2.73%
O=C1Nc2ccc(Br)cc2/C1=N/NC(=O)c1ccc(Br)cc1 [IS3],IC50,[1],0.514 ± 0.023 µM
same,SI (selectivity index),[1],4.64
same,remaining activity at 10 µM,[1],1.04 ± 0.23%
same,IC50,[2],2.385 ± 0.018 µM
same,remaining activity at 10 µM,[2],29.5 ± 0.34%
O=C1Nc2ccc(Br)cc2/C1=N/NC(=O)c1ccc(F)cc1 [IS4],IC50,[1],7.28 ± 1.72 µM
same,SI (selectivity index),[1],4.51
same,remaining activity at 10 µM,[1],42.5 ± 8.93%
same,IC50,[2],32.85 ± 0.134 µM
same,remaining activity at 10 µM,[2],70.1 ± 1.93%
O=C1Nc2ccccc2/C1=N/NC(=O)c1ccc(Cl)cc1 [IS6],CNS/BBB permeability in words,[3],high permeability and CNS bioavailability
same,Prediction (CNS permeation class),[3],CNS+ (Pe (10^−6 cm/s) > 4.00: CNS + (high permeation))
same,Experimental Pe,[3],> 4 ×10⁻⁶ cm/s
same,Papp,[3],4.86 ± 0.26 ×10⁻⁶ cm/s
O=C1Nc2ccccc2/C1=N/NC(=O)c1ccc(Br)cc1 [IS7],SOD (cellular anti-oxidant enzyme) effect,[4],enhancing the enzyme activity
same,"MAO-B relative activity, dialyzed (AD)","[5]; […] IC50, 30 min pre-incubation, dialyzed",72.89%
same,"MAO-B relative activity, undialyzed (AU)","[5]; […] IC50, 30 min pre-incubation, undialyzed",28.65%
same,Reversibility of MAO-B inhibition,[5]; dialysis,reversible-type inhibitors
same,TNF-alpha level vs LPS-treated group,[6]; [14],significantly (p < 0.0001) reduced
same,TNF-alpha level compared to IS13 and IS15,[6]; LPS-treated cell lines,significantly decreased
same,IC50,[1],0.082 ± 0.01 µM
same,SI (selectivity index),[1],233.85
same,remaining activity at 10 µM,[1],3.2 ± 0.77%
same,Fold higher MAO-B inhibition than IS5,[1]; relative to basic compound IS5,50.4 ×
same,IC50,[2],19.2 ± 5.96 µM
same,remaining activity at 10 µM,[2],50.8 ± 7.29%
same,GPx (cellular anti-oxidant enzyme) effect,[7],enhancing the enzyme activity
same,CNS/BBB permeability in words,[3],high permeability and CNS bioavailability
same,Prediction (CNS permeation class),[3],CNS+ (Pe (10^−6 cm/s) > 4.00: CNS + (high permeation))
same,Experimental Pe,[3],> 4 ×10⁻⁶ cm/s
same,Papp,[3],5.02 ± 0.19 ×10⁻⁶ cm/s
same,CAT (cellular anti-oxidant enzyme) effect,[8],enhancing the enzyme activity
same,NF-kB level vs LPS-treated group,[9],significantly (p < 0.0001) reduced
same,Cell viability at 100 μM,[10]; 100 μM,remarkably decreased cell viability
same,IC50,[10]; Homo sapiens,97.2 µM
same,Type of MAO-B inhibition,[11]; LB plot,competitive
same,Ki,[11]; secondary plot of LB slopes vs inhibitor concentration,0.044 ± 0.002 µM
same,DCF intensity decrease at 10 µM,"[12]; 10 µM/mL (10 µM), vs LPS-induced cells",effective DCF intensity decrease
same,DCF expression (ROS) vs cells treated with LPS alone,[12]; LPS-induced SH-SY5Y,significantly inhibited (p < 0.0001)
same,IL-6 level vs LPS-treated group,[13]; [14],significantly (p < 0.0001) reduced
same,IL-6 level compared to IS13 and IS15,[13]; LPS-treated cell lines,significantly decreased
O=C1Nc2ccccc2/C1=N/NC(=O)c1ccc(F)cc1 [IS8],IC50,[1],25.5 ± 2.03 µM
same,remaining activity at 10 µM,[1],67.4 ± 7.8%
same,IC50,[2],35 µM
same,remaining activity at 10 µM,[2],69.7 ± 3.22%
O=C1Nc2ccc(F)cc2/C1=N/NC(=O)c1ccccc1 [IS9],IC50,[1],9.09 ± 1.28 µM
same,remaining activity at 10 µM,[1],45.6 ± 6.28%
same,IC50,[2],> 40 µM
same,remaining activity at 10 µM,[2],67.4 ± 1%
O=C1Nc2ccc(F)cc2/C1=N/NC(=O)c1ccc(Cl)cc1 [IS10],IC50,[1],3.99 ± 0.472 µM
same,SI (selectivity index),[1],4.58
same,remaining activity at 10 µM,[1],42.6 ± 0.82%
same,IC50,[2],18.3 ± 0.729 µM
same,remaining activity at 10 µM,[2],54.1 ± 0.78%
O=C1Nc2ccc(F)cc2/C1=N/NC(=O)c1ccc(Br)cc1 [IS11],IC50,[1],10.6 ± 0.256 µM
same,SI (selectivity index),[1],1.30
same,remaining activity at 10 µM,[1],53.2 ± 2.6%
same,IC50,[2],13.7 ± 0.396 µM
same,remaining activity at 10 µM,[2],43.56 ± 0.42%
O=C1Nc2ccc(F)cc2/C1=N/NC(=O)c1ccc(F)cc1 [IS12],IC50,[1],7.1 ± 0.956 µM
same,SI (selectivity index),[1],0.60
same,remaining activity at 10 µM,[1],44.3 ± 4.48%
same,IC50,[2],4.29 ± 0.552 µM
same,remaining activity at 10 µM,[2],36.6 ± 1.6%
O=C1Nc2ccc(Cl)cc2/C1=N/NC(=O)c1ccccc1 [IS13],CNS/BBB permeability in words,[3],high permeability and CNS bioavailability
same,Prediction (CNS permeation class),[3],CNS+ (Pe (10^−6 cm/s) > 4.00: CNS + (high permeation))
same,Experimental Pe,[3],> 4 ×10⁻⁶ cm/s
same,Papp,[3],4.66 ± 0.18 ×10⁻⁶ cm/s
O=C1Nc2ccc(Cl)cc2/C1=N/NC(=O)c1ccc(Cl)cc1 [IS14],IC50,[1],0.234 ± 0.008 µM
same,SI (selectivity index),[1],48.15
same,remaining activity at 10 µM,[1],23 ± 2.48%
same,IC50,[2],11.3 ± 0.414 µM
same,remaining activity at 10 µM,[2],53.1 ± 0.91%
O=C1Nc2ccc(Cl)cc2/C1=N/NC(=O)c1ccc(F)cc1 [IS16],IC50,[1],3.85 ± 0.392 µM
same,SI (selectivity index),[1],2.20
same,remaining activity at 10 µM,[1],26.1 ± 4.39%
same,IC50,[2],8.45 ± 0.395 µM
same,remaining activity at 10 µM,[2],43.7 ± 1.65%
"C#CCN(C)[C@H](C)Cc1ccccc1 [Selegiline, reference compound]",Prediction (CNS permeation class),[3],CNS+ (Pe (10^−6 cm/s) > 4.00: CNS + (high permeation))
